≈ marks a conversion by molar mass, not a printed value. Like-named read-outs stand apart in the source and are kept apart here.
Experiments:
Test in all cases: MIC determination by in vitro antifungal assay
Type in all cases: cell-based
[1] = tested on: Candida glabrata ATCC 2001 (H); conditions: ATCC 2001 in text
Method: (§1) 10 mg/mL stock solutions of compounds 1a-9j were prepared in dimethyl sulfoxide (DMSO) and were stored at −20° C. in the dark. The antifungal agent amphotericin B (AmB) was purchased from VWR (Radnor PA, USA). AmB was dissolved in DMSO at a final concentration of 5 mg/mL and was stored at −20° C., protected from light. Candida albicans American Type Culture Collection (ATCC) 10231 (strain A), C. albicans ATCC 64124 (B), and C. albicans ATCC MYA-2876 (C) were obtained from Utah State University. C. albicans ATCC 90819 (D), C. albicans ATCC MYA-2310 (E), C. albicans ATCC MYA-1237 (F), C. albicans ATCC MYA-1003 (G), Candida glabrata ATCC 2001 (H), Candida krusei ATCC 6258 (I), Candida parapsilosis ATCC 22019 (J), Cryptococcus neoformans ATCC MYA-895 (M), Aspergillus terreus ATCC MYA-3633 (N), and Aspergillus flavus ATCC MYA-3631 (0) were obtained from the American Type Culture Collection (ATCC; Manassas, VA, USA). Aspergillus nidulans ATCC 38163 (P) was obtained from University of Kentucky. Clinically derived Aspergillus fumigatus NRRL 163 (Q), A. fumigatus NRRL 5109 (R), and A. fumigatus NRRL 6113 (S) were obtained from Northern Regional Research Laboratory (NRRL). Candida auris 384 (K), C. auris 390 (L), and fungal strains 381-400 (including 10 C. auris (AR Bank #381-390), 3 Candida duobushaemulonii (AR Bank #391, AR Bank #392, and AR Bank #394), 2 Candida haemulonii (AR Bank #393 and AR Bank #395), 1 Kodameae ohmeri (AR Bank #396), 1 C. krusei (AR Bank #397), 1 Candida lusitaniae (AR Bank #398), and 2 Saccharomyces cerevisiae strains (AR Bank #399 and AR Bank #400)) were part of a larger fungal library from the AR Bank maintained by the Centers for Disease Control and Prevention (CDC; Atlanta, GA, USA). Filamentous fungi and yeasts were cultivated at 35° C. in RPMI 1640 medium (with L-glutamine, without sodium bicarbonate, Sigma-Aldrich, St. Louis, MO) buffered to a pH of 7.0 with 0.165 M morpholinepropanesulfonic acid (MOPS) buffer (Sigma-Aldrich). For cytotoxicity assays, HepG2 and the mouse macrophage cell line J774A.1 were obtained from University of Kentucky. The human embryonic kidney cell line, HEK-293, was bought from the ATCC. Mammalian cells were grown in Dulbecco's Modified Eagle's Medium (DMEM) (from VWR) with 10% fetal bovine serum (FBS) (from VWR) and 1% Pen/Strep (from ATCC). Cell lines were cultured at 37° C. with 5% CO2 and passaged by trypsinization with 0.05% trypsin: 0.53 mM EDTA (from Sigma-Aldrich).
(§2) The MIC values of compounds 1a-9j against yeast cells (strains A-P and 381-400) were determined in 96-well plates as described in the CLSI documents M27-A3 and M38-A2 with minor modifications.^2 A single colony of freshly prepared yeast cells was used to inoculate 5 mL of yeast extract peptone dextrose (YPD) broth prior to incubation overnight with shaking at 200 rpm at 35° C. From the actively growing yeast culture, 100 µL were then transferred to 900 μL of RPMI 1640 medium and re-adjusted to achieve OD600 of 0.12 (˜1×10^6 CFU/mL). The cell suspension was further diluted to achieve 1:100 in RPMI 1640 medium. 100 μL of cells were added to the wells of a 96-well microtiter plates that contained 100 µL of the compound solution to obtain concentrations of 0.06-31.3 μg/mL of compounds 1a-9j or AmB prior to incubation for 48 h at 35° C. […]

[2] = tested on: Candida krusei ATCC 6258 (I)
Method: as §1, §2

[3] = tested on: Candida parapsilosis ATCC 22019 (J)
Method: as §1, §2

[4] = tested on: Aspergillus flavus ATCC MYA-3631 (O); conditions: strain O = A. flavus ATCC MYA-3631
Method: as §1
(§3) The MIC values of compounds 1a-9j against yeast cells (strains A-P and 381-400) were determined in 96-well plates as described in the CLSI documents M27-A3 and M38-A2 with minor modifications.^2 A single colony of freshly prepared yeast cells was used to inoculate 5 mL of yeast extract peptone dextrose (YPD) broth prior to incubation overnight with shaking at 200 rpm at 35° C. From the actively growing yeast culture, 100 µL were then transferred to 900 μL of RPMI 1640 medium and re-adjusted to achieve OD600 of 0.12 (˜1×10^6 CFU/mL). The cell suspension was further diluted to achieve 1:100 in RPMI 1640 medium. 100 μL of cells were added to the wells of a 96-well microtiter plates that contained 100 µL of the compound solution to obtain concentrations of 0.06-31.3 μg/mL of compounds 1a-9j or AmB prior to incubation for 48 h at 35° C.
(§4) Finally, the activity of these monohydrazides was explored against […] non-Candida strains: Cryptococcus neoformans ATCC MYA-895 (M), Aspergillus terreus ATCC MYA-3633 (N), Aspergillus flavus ATCC MYA-3631 (O), Aspergillus nidulans ATCC 38163 (P), Aspergillus fumigatus NRRL 163 (Q), A. fumigatus NRRL 5109 (R), and A. fumigatus NRRL 6113 (S) (Tables 1A and 1B). The double dilution method was used with concentrations ranging from 0.06 to 31.3 j·tg mL^−1 for monohydrazides 1a-9j, and the commercially available positive antifungal control amphotericin B (AmB).

[5] = tested on: Aspergillus nidulans ATCC 38163 (P)
Method: as §1, §3, §4

[6] = tested on: Aspergillus terreus ATCC MYA-3633 (N); conditions: strain N = A. terreus ATCC MYA-3633
Method: as §1, §3, §4

[7] = tested on: Cryptococcus neoformans ATCC MYA-895 (M); conditions: strain M = C. neoformans ATCC MYA-895
Method: as §1, §3, §4

[8] = Nakaseomyces glabratus, ATCC 2001 / ATCC 2004, strain H = C. glabrata ATCC 2004 (footnote), read-out: MIC
[9] = Pichia kudriavzevii, ATCC6258, strain I = C. krusei ATCC 6258, read-out: MIC
[10] = Lodderomyces parapsilosis, ATCC22019, strain J = C. parapsilosis ATCC 22019, read-out: MIC
[11] = Aspergillus flavus, read-out: MIC
[12] = Aspergillus nidulans, ATCC38163, strain P = A. nidulans ATCC 38163, read-out: MIC
[13] = Aspergillus terreus, read-out: MIC
[14] = Cryptococcus neoformans, read-out: MIC
[15] = strain H = C. glabrata ATCC 2004 (footnote)
[16] = strain J = C. parapsilosis ATCC 22019
[17] = strain P = A. nidulans ATCC 38163

Structure (SMILES) | MIC [1, 8] [µg/mL] | MIC [2, 9] [µg/mL] | MIC [3, 10] [µg/mL] | MIC [4, 11] [µg/mL] | MIC [5, 12] [µg/mL] | MIC [6, 13] [µg/mL] | MIC [7, 14] [µg/mL] | MIC [1, 15] [μg/mL^−1] | MIC ([2]; strain I = C. krusei ATCC 6258) [μg/mL^−1] | MIC [3, 16] [μg/mL^−1] | MIC [4] [μg/mL^−1] | MIC [5, 17] [μg/mL^−1] | MIC [6] [μg/mL^−1] | MIC [7] [μg/mL^−1]
O=C(NNc1ccc(F)cc1)c1ccccn1 [Compound 2d] | 1.95 (≈ 8.43 µM) | 0.12 (≈ 0.519 µM) | 1.95 (≈ 8.43 µM) | 31.3 (≈ 135 µM) | 0.49 (≈ 2.12 µM) | 1.95 (≈ 8.43 µM) | 0.24 (≈ 1.04 µM) |  |  |  |  |  |  | 
COc1ccc(NNC(=O)c2cnccn2)cc1 [Compound 9f] | 0.98 (≈ 4.01 µM) | 0.98 (≈ 4.01 µM) | 3.9 (≈ 16 µM) | > 31.3 | 0.98 (≈ 4.01 µM) | > 31.3 | 0.98 (≈ 4.01 µM) |  |  |  |  |  |  | 
O=C(NNc1ccc(F)cc1)c1cccc(F)n1 [Compound 5d] | 15.6 (≈ 62.6 µM) | 0.49 (≈ 1.97 µM) | 3.9 (≈ 15.6 µM) | 7.8 (≈ 31.3 µM) | 0.98 (≈ 3.93 µM) | 1.95 (≈ 7.82 µM) | 0.49 (≈ 1.97 µM) |  |  |  |  |  |  | 
O=C(NNc1ccc(F)cc1F)c1cnccn1 [Compound 9g] | 0.98 (≈ 3.92 µM) | 0.24 (≈ 0.959 µM) | 3.9 (≈ 15.6 µM) | 7.8 (≈ 31.2 µM) | 0.49 (≈ 1.96 µM) | 0.98 (≈ 3.92 µM) | 0.24 (≈ 0.959 µM) |  |  |  |  |  |  | 
O=C(NNc1cccc(F)c1)c1cnccn1 [Compound 9a] |  |  |  |  |  |  |  | 7.8 | 0.49 | 3.9 | 15.6 | 0.98 | 0.98 | 0.12
O=C(NNc1cc(Cl)cc(Cl)c1)c1ccccn1 [Compound 2j] | 7.8 (≈ 27.6 µM) | 0.98 (≈ 3.47 µM) | 1.95 (≈ 6.91 µM) | > 31.3 | 0.49 (≈ 1.74 µM) | 1.95 (≈ 6.91 µM) | 0.49 (≈ 1.74 µM) |  |  |  |  |  |  | 
O=C(NNc1ccc(F)cc1)c1ccc(F)cn1 [Compound 3d] |  |  |  |  |  |  |  | 15.6 | 0.49 | 3.9 | 15.6 | 0.98 | 3.9 | 0.98
COc1ccc(NNC(=O)c2ccc(Br)cn2)cc1 [Compound 4f] | 1.95 (≈ 6.05 µM) | 0.98 (≈ 3.04 µM) | 3.9 (≈ 12.1 µM) | > 31.3 | 15.6 (≈ 48.4 µM) | 7.8 (≈ 24.2 µM) | 1.95 (≈ 6.05 µM) |  |  |  |  |  |  | 
O=C(NNc1cccc(F)c1)c1ccccn1 [Compound 2a] |  |  |  |  |  |  |  | 1.95 | 0.24 | 1.95 | 7.8 | 3.9 | 1.95 | 0.12
COc1ccc(NNC(=O)c2ccc(F)cc2F)cc1 [Compound 1f] | 3.9 (≈ 14 µM) | 0.98 (≈ 3.52 µM) | 7.8 (≈ 28 µM) | > 31.3 | 1.95 (≈ 7.01 µM) | 31.3 (≈ 112 µM) | 0.98 (≈ 3.52 µM) |  |  |  |  |  |  | 
